Measurements published in patent publication US20240408125A1, “COMPOSITION COMPRISING POLYGALATENOSIDE AS ACTIVE INGREDIENT FOR PREVENTION OR TREATMENT OF CANCER” (HOSEO UNIVERSITY ACADEMIC COOPERATION FOUNDATION, priority 2021, published 2024).

What was measured:
Type in all cases: cell-based, Mouse
[1] = test system: NOX2 protein; test: NOX2 protein expression by Western blot with densitometry relative to β-actin; conditions: B16-F10 cells, FIG. 2
Method: (§1) B16-F10 melanoma cells were cultured under conditions of 36.5° C. and 5% CO2 using a Dulbecco's modified Eagle's medium supplemented with 10% (v/v) fetal bovine serum and 1% (v/v) penicillin-streptomycin.
B16-F10 melanoma cells were cultured for 12 hours, and then treated with polygalatenoside A at concentrations of 0, 0.1, 0.3, 1, 3, and 10 μM for 24 hours, respectively. Thereafter, the cells were washed twice with PBS, and collected, and proteins were recovered by lysing the cells with a radioimmunoprecipitation assay (RIPA) buffer containing phenylmethylsulfonyl fluoride (PMSF). 50 μg of proteins was separated by sodium dodecyl sulfate poly-acrylamide gel electrophoresis (SDS-PAGE) and then transferred to a polyvinylidene fluoride (PVDF) membrane. The membrane was treated with a tris-buffered saline (TBS; pH 7.6) containing 5% (w/v) skim milk, 0.05% (v/v) tween-20, and 0.01% (w/v) sodium azide at 25° C. for 1 hour. The membrane was washed three times with TBST (TBS containing 0.05% (v/v) tween-20) and treated with an anti-NOX2 primary antibody and a horse radish peroxidase (HRP)-conjugated secondary antibody. The protein levels were visualized using enhanced chemiluminescence (ECL) and an X-ray film. The expression level of NOX2 protein compared to β-actin was shown in FIG. 2 through a densitometry of ImageJ software.

[2] = test system: B16-F10 melanoma cells; test: WST8 cell viability assay; conditions: 3 μM for 48 hours, WST8, absorbance at 450 nm, FIG. 3
Method: as §1
B16-F10 melanoma cells were cultured in a 96-well cell culture plate for 12 hours, and then treated with polygalatenoside A at concentrations of 0, 0.1, 0.3, 1, 3, and 10 μM for 48 hours, respectively. The medium was treated with a WST8 Cell Viability Assay Reagent to a concentration of 10% (v/v) and cultured for 2 hours. Thereafter, cell viability was confirmed by measuring absorbance at 450 nm using a microplate reader, and the results were shown in FIG. 3.

[3] = test system: B16-F10 melanoma cells; test: Viable cell number by trypan blue staining and hemocytometer; conditions: FIG. 4
Method: as §1
Next, in order to measure changes in cell number, B16-F10 cells were cultured for 12 hours, and then treated with polygalatenoside A at concentrations of 0, 0.1, 0.3, 1, 3, and 10 μM for 72 hours, respectively. The cells were collected every 24 hours, stained with trypan blue, and the number of viable cells was measured using a hemocytometer, and the results were shown in FIG. 4.

`O=C(OCC1OC(OC2COC(CO)[C@@H](O)C2O)C(O)C(O)C1O)c1ccccc1` (some centres unmarked) [polygalatenoside A, Polygalatenoside A] was tested, and the “expression of NOX2 compared to untreated control group (fold)” value ([1]; 3 μM for 24 hours) was “about 1.4 times”, the “expression of NOX2 compared to untreated control group” value ([1]; 0.1-10 μM for 24 hours) was “increased” and the “cell viability (cell death effect)” value [2] was “cell death effect was exhibited”. For the same molecule, the “growth inhibition effect (number of viable cells)” value ([3]; 3 μM up to 72 hours, compared with the other concentrations) was “most significantly shown” and the “growth of melanoma cells (number of viable cells)” value ([3]; 0.1-10 μM up to 72 hours, counted every 24 hours) was “inhibited”.
